Laboratory results reported in patent US20250281464A1, “TREATMENT OF PATHOGENIC NEISSERIA SP. INFECTION WITH TRIAZOLE ANTIFUNGAL AGENTS” (Virginia Tech Intellectual Properties, Inc., priority 2022, published 2025).
Values after ≈ are worked out from the molar mass of the structure shown. Read-outs that look alike come from different tables or passages of the source.

Assays:
N. gonorrhoeae isolates = assay: MIC against panel of N. gonorrhoeae clinical isolates; type: cell-based, Neisseria gonorrhoeae
[1] = tested on: resistant N. gonorrhoeae isolates; assay: MIC against resistant N. gonorrhoeae isolates by agar dilution; type: cell-based, Neisseria gonorrhoeae
L. crispatus = assay: MIC against commensal vaginal Lactobacillus strains; type: cell-based, Lactobacillus crispatus; conditions: for MIC: Lactobacillus crispatus; for MIC Range: Table 6, L. crispatus (3 strains)
Excerpt: (§1) N. gonorrhoeae pathogenesis greatly depends on colonization of the reproductive tract. One of the natural barriers of such colonization is an intact healthy microbiome. Species of lactobacilli present in the genitourinary tract play a significant role in hindering colonization by Neisseria(1).
(§2) A healthy vaginal microbiome that is dominated by Lactobacillus spp. is less susceptible to N. gonorrhoeae infection and other sexually transmitted diseases (STDs). […] We tested the activity of azoles against important members of healthy vaginal microbiota that inhibit N. gonorrhoeae colonization.

L. gasseri = assay: as above; type: cell-based, Lactobacillus gasseri; conditions: for MIC: Lactobacillus gasseri; for MIC Range: Table 6, L. gasseri (4 strains)
Excerpt: as §1, §2

L. jensenii = assay: as above; type: cell-based, Lactobacillus jensenii; conditions: for MIC: Lactobacillus jensenii; for MIC Range: Table 6, L. jensenii (7 strains)
Excerpt: as §1, §2

L. johnsonii = assay: as above; type: cell-based, Lactobacillus johnsonii; conditions: for MIC Range: Table 6, L. johsonii (2 strains)
Excerpt: as §1, §2

[2] = tested on: commensal vaginal lactobacilli strains; assay: MIC against all commensal vaginal Lactobacillus strains tested; type: cell-based, Lactobacillus spp.
Excerpt: as §1, §2

N. gonorrhoeae = assay: Post-antibiotic effect (PAE) against N. gonorrhoeae; type: cell-based, Neisseria gonorrhoeae; conditions: 1 h exposure at 10×MIC
Excerpt: Determining the PAE of a new antimicrobial is an important step for dosing and has clinical importance.

[3] = MIC against normal gut microbiota; type: cell-based
Excerpt: (§3) Disrupting the intestinal microbiota using broad-spectrum antimicrobial therapy increases the susceptibility of hosts to C. difficile colonization.

Bacteroides dorei = assay: MIC against normal gut microbiota; type: cell-based; conditions: Bacteroides dorei (2 strains)
Excerpt: as §3

[4] = tested on: Bifidobacterium angulatum; assay: MIC against normal gut microbiota; type: cell-based; conditions: Bifidobacterium angulatum (1 strain)
Excerpt: as §3

Enterococcus faecalis = assay: MIC against normal gut microbiota; type: cell-based; conditions: Enterococcus faecalis (1 strain)
Excerpt: as §3

Enterococcus faecium = assay: MIC against normal gut microbiota; type: cell-based; conditions: Enterococcus faecium (1 strain)
Excerpt: as §3

Escherichia coli = assay: MIC against normal gut microbiota; type: cell-based; conditions: Escherichia coli (1 strain)
Excerpt: as §3

Lactobacillus brevis = assay: MIC against normal gut microbiota; type: cell-based; conditions: Lactobacillus brevis (1 strain)
Excerpt: as §3

Lactobacillus casei = assay: MIC against normal gut microbiota; type: cell-based; conditions: Lactobacillus casei (1 strain)
Excerpt: as §3

Lactobacillus rhamnosus = assay: MIC against normal gut microbiota; type: cell-based; conditions: Lactobacillus rhamnosus (1 strain)
Excerpt: as §3

Staphylococcus aureus = assay: MIC against normal gut microbiota; type: cell-based; conditions: Staphylococcus aureus (1 strain)
Excerpt: as §3

N. flavescens = assay: MIC against Neisseria spp.; type: cell-based; conditions: N. flavescens (1 strain)
Excerpt: (§4) Intrigued by the specificity and potent activity of azoles against N. gonorrhoeae, we evaluated the extent of the azoles' antibacterial activity against other Neisseria species (Table 8).

N. lactamica = assay: MIC against Neisseria spp.; type: cell-based; conditions: N. lactamica (1 strain)
Excerpt: as §4

N. mucosa = assay: MIC against Neisseria spp.; type: cell-based; conditions: N. mucosa (1 strain)
Excerpt: as §4

Bacteroides fragilis = assay: MIC against normal gut microbiota; type: cell-based; conditions: Bacteroides fragilis (4 strains)
Excerpt: as §3

[5] = Neisseria gonorrhoeae, Table 1, 104 N. gonorrhoeae isolates, read-out: MIC50
[6] = Neisseria gonorrhoeae, Table 1, 104 N. gonorrhoeae isolates, read-out: MIC90
[7] = Neisseria gonorrhoeae, Table 3, 103 N. gonorrhoeae isolates with different resistance profiles, read-out: MIC50
[8] = Neisseria gonorrhoeae, Table 3, 103 N. gonorrhoeae isolates with different resistance profiles, read-out: MIC90
[9] = Table 1, 104 N. gonorrhoeae isolates
[10] = Table 3, 103 N. gonorrhoeae isolates with different resistance profiles
[11] = all species/strains of Lactobacillus tested (Example 2), read-out: MIC
[12] = Bacteroides adolescentis (2 strains)

## CC[C@H]1OC(=O)[C@H](C)[C@@H](O[C@H]2C[C@@](C)(OC)[C@@H](O)[C@H](C)O2)[C@H](C)[C@@H](O[C@@H]2O[C@H](C)C[C@H](N(C)C)[C@H]2O)[C@](C)(O)C[C@@H](C)CN(C)[C@H](C)[C@@H](O)[C@]1(C)O [Azithromycin]
N. gonorrhoeae isolates; [5]
  MIC50: 1 µg/mL (≈ 1.34 µM)
N. gonorrhoeae isolates; [6]
  MIC90: 4 µg/mL (≈ 5.34 µM)
N. gonorrhoeae isolates; [7]
  MIC50: 1 µg/mL (≈ 1.34 µM)
N. gonorrhoeae isolates; [8]
  MIC90: 4 µg/mL (≈ 5.34 µM)
N. gonorrhoeae isolates; [9]
  MIC Range: 0.03 to 512 µg/mL
N. gonorrhoeae isolates; [10]
  MIC Range: 0.03 to 512 µg/mL
[1]; strain CDC-174, agar dilution
  MIC: 1 µg/mL (≈ 1.34 µM)
[1]; strain CDC-179, agar dilution
  MIC: 8 µg/mL (≈ 10.7 µM)
[1]; strain CDC-181, agar dilution
  MIC: 256 µg/mL (≈ 342 µM)
[1]; strain WHO-L, agar dilution
  MIC: 0.5 µg/mL (≈ 0.668 µM)
[1]; strain WHO-X, agar dilution
  MIC: 0.5 µg/mL (≈ 0.668 µM)
[1]; strain WHO-Y, agar dilution
  MIC: 1 µg/mL (≈ 1.34 µM)
[1]; strain WHO-Z, agar dilution
  MIC: 1 µg/mL (≈ 1.34 µM)
L. crispatus; L. crispatus HM-103
  MIC: 1 µg/mL (≈ 1.34 µM)
L. crispatus; L. crispatus HM-371
  MIC: 2 µg/mL (≈ 2.67 µM)
L. crispatus; L. crispatus HM-638
  MIC: 1 µg/mL (≈ 1.34 µM)
L. crispatus
  MIC Range: ≤1 µg/mL
L. gasseri; L. gasseri HM-407
  MIC: ≤ 0.5 µg/mL
L. gasseri; L. gasseri HM-642
  MIC: 2 µg/mL (≈ 2.67 µM)
L. gasseri; L. gasseri HM-644
  MIC: 2 µg/mL (≈ 2.67 µM)
L. gasseri; L. gasseri HM-647
  MIC: 1 µg/mL (≈ 1.34 µM)
L. gasseri
  MIC Range: ≤1 µg/mL
L. jensenii; L. jensenii HM-105
  MIC: ≤ 0.5 µg/mL
L. jensenii; L. jensenii HM-372
  MIC: 1 µg/mL (≈ 1.34 µM)
L. jensenii; L. jensenii HM-374
  MIC: 1 µg/mL (≈ 1.34 µM)
L. jensenii; L. jensenii HM-639
  MIC: 1 µg/mL (≈ 1.34 µM)
L. jensenii; L. jensenii HM-640
  MIC: ≤ 0.5 µg/mL
L. jensenii; L. jensenii HM-645
  MIC: 1 µg/mL (≈ 1.34 µM)
L. jensenii; L. jensenii HM-646
  MIC: 2 µg/mL (≈ 2.67 µM)
L. jensenii
  MIC Range: ≤1 µg/mL
L. johnsonii; Lactobacillus johnsonii, L. johnsonii HM-643
  MIC: 2 µg/mL (≈ 2.67 µM)
L. johnsonii
  MIC Range: ≤1 µg/mL
[2]; [11]
  MIC: < 1 µg/mL
N. gonorrhoeae; strain FA 1090
  PAE: 6 h
N. gonorrhoeae; strain WHO P
  PAE: 8 h
N. gonorrhoeae; strain WHO Y
  PAE: 4 h
[3]; [12]
  MIC Range: 0.015 µg/mL (≈ 0.02 µM)
[3]; Bacteroides breve (2 strains)
  MIC Range: 0.03 to 0.06 µg/mL
[3]; Bacteroides longum (2 strains)
  MIC Range: 0.25 µg/mL (≈ 0.334 µM)
Bacteroides dorei
  MIC Range: 4 to 16 µg/mL
[4]
  MIC Range: 0.03 µg/mL (≈ 0.0401 µM)
Enterococcus faecalis
  MIC Range: 2 µg/mL (≈ 2.67 µM)
Enterococcus faecium
  MIC Range: 0.25 µg/mL (≈ 0.334 µM)
Escherichia coli
  MIC Range: 2 µg/mL (≈ 2.67 µM)
Lactobacillus brevis
  MIC Range: 1 µg/mL (≈ 1.34 µM)
Lactobacillus casei
  MIC Range: 0.5 µg/mL (≈ 0.668 µM)
Lactobacillus rhamnosus
  MIC Range: 1 µg/mL (≈ 1.34 µM)
Staphylococcus aureus
  MIC Range: 0.25 µg/mL (≈ 0.334 µM)
N. flavescens
  MIC Range: 2 µg/mL (≈ 2.67 µM)
N. lactamica
  MIC Range: 2 µg/mL (≈ 2.67 µM)
N. mucosa
  MIC Range: 2 µg/mL (≈ 2.67 µM)

## O=c1ccc2ncc(=O)n3c2n1C[C@H]3CN1CCC(NCc2cc3c(cn2)OCCC3)CC1 [Gepotidacin]
N. gonorrhoeae isolates; [5]
  MIC50: 0.25 µg/mL (≈ 0.557 µM)
N. gonorrhoeae isolates; [6]
  MIC90: 0.5 µg/mL (≈ 1.11 µM)
N. gonorrhoeae isolates; [7]
  MIC50: 0.5 µg/mL (≈ 1.11 µM)
N. gonorrhoeae isolates; [8]
  MIC90: 1 µg/mL (≈ 2.23 µM)
N. gonorrhoeae isolates; [9]
  MIC Range: 0.03 to 8 µg/mL
N. gonorrhoeae isolates; [10]
  MIC Range: 0.03 to 8 µg/mL
L. crispatus
  MIC Range: ≤1 µg/mL
L. gasseri
  MIC Range: ≤1 µg/mL
L. jensenii
  MIC Range: ≤1 µg/mL
L. johnsonii
  MIC Range: ≤1 µg/mL
[2]; [11]
  MIC: < 1 µg/mL
[3]; [12]
  MIC Range: <0.125 µg/mL
[3]; Bacteroides breve (2 strains)
  MIC Range: <0.125 µg/mL
[3]; Bacteroides longum (2 strains)
  MIC Range: 0.5 µg/mL (≈ 1.11 µM)
Bacteroides dorei
  MIC Range: 0.125 µg/mL (≈ 0.279 µM)
Bacteroides fragilis
  MIC Range: 0.25 to 2 µg/mL
[4]
  MIC Range: 0.125 µg/mL (≈ 0.279 µM)
Enterococcus faecalis
  MIC Range: 1 µg/mL (≈ 2.23 µM)
Enterococcus faecium
  MIC Range: 2 µg/mL (≈ 4.46 µM)
Escherichia coli
  MIC Range: 0.125 µg/mL (≈ 0.279 µM)
Lactobacillus brevis
  MIC Range: 0.5 µg/mL (≈ 1.11 µM)
Lactobacillus casei
  MIC Range: 0.25 µg/mL (≈ 0.557 µM)
Lactobacillus rhamnosus
  MIC Range: 0.5 µg/mL (≈ 1.11 µM)
Staphylococcus aureus
  MIC Range: 0.25 µg/mL (≈ 0.557 µM)

## C[C@@H]1CN2c3c(cc4c(N5C(=O)OC[C@@H]5C)noc4c3F)CC3(C(=O)NC(=O)NC3=O)[C@H]2[C@H](C)O1 [Zoliflodacin]
N. gonorrhoeae isolates; Neisseria gonorrhoeae
  MIC50: 0.06 µg/mL (≈ 0.123 µM)
  MIC90: 0.125 µg/mL (≈ 0.256 µM)
N. gonorrhoeae isolates; [9]
  MIC Range: 0.004 to 0.5 µg/mL
N. gonorrhoeae isolates; [10]
  MIC50: 0.06 µg/mL (≈ 0.123 µM)
  MIC90: 0.125 µg/mL (≈ 0.256 µM)
  MIC Range: 0.004 to 0.25 µg/mL
L. crispatus
  MIC Range: ≤1 µg/mL
L. gasseri
  MIC Range: ≤1 µg/mL
L. jensenii
  MIC Range: ≤1 µg/mL
L. johnsonii
  MIC Range: ≤1 µg/mL
[2]; Lactobacillus
  MIC: < 1 µg/mL
[3]; [12]
  MIC Range: 1 µg/mL (≈ 2.05 µM)
[3]; Bacteroides breve (2 strains)
  MIC Range: 4 µg/mL (≈ 8.21 µM)
[3]; Bacteroides longum (2 strains)
  MIC Range: 1 to 2 µg/mL
Bacteroides dorei
  MIC Range: 0.5 to 1 µg/mL
Bacteroides fragilis
  MIC Range: 2 to 8 µg/mL
[4]
  MIC Range: 1 µg/mL (≈ 2.05 µM)
Enterococcus faecalis
  MIC Range: 0.5 µg/mL (≈ 1.03 µM)
Enterococcus faecium
  MIC Range: 2 µg/mL (≈ 4.1 µM)
Escherichia coli
  MIC Range: 0.25 µg/mL (≈ 0.513 µM)
Lactobacillus brevis
  MIC Range: 1 µg/mL (≈ 2.05 µM)
Lactobacillus casei
  MIC Range: <0.125 µg/mL
Lactobacillus rhamnosus
  MIC Range: 0.125 µg/mL (≈ 0.256 µM)
Staphylococcus aureus
  MIC Range: 0.125 µg/mL (≈ 0.256 µM)
